Reference: patent US10850135B2, “Antiseptic-tolerant lactic acid bacteria” (AB-BIOTICS, S.A., priority 2016, dated 2020)

Experiments:
Test in all cases: Tolerance to antiseptics, disc diffusion assay
P. acidilactici AB134 = format: cell-based, Pediococcus acidilactici; settings: 6 mm discs impregnated with chlorhexidine; concentration not given
Method: (§1) LAB strains with presumed probiotic properties namely L. brevis, P. acidilactici, P. pentosaceus, S. oralis and S. salivarius were seeded in agar plates with the appropriate nutrient media and incubated in order to obtain isolated colonies. Porphyromonas gingivalis DSM20709 was used as an example of pathogens associated with periodontal pathologies. For each strain the nutritive media and atmospheric conditions used were the most suitable for their proper growth as summarized in TABLE 1.
(§2) For each microorganism, isolated colonies were used for preparing a suspension in Phosphate Buffered Saline 0.1M (PBS) with an optical density equivalent to a Mc Farland standard No. 3. The suspension was used for obtaining a confluent layer of microorganism over the corresponding nutrient medium (TABLE 1) by uniformly seeding the microorganism using a sterile swab.
(§3) Immediately after the inoculation of the strains in the plates, 6 mm of cellulose discs were placed. The discs were impregnated with different conventional antiseptics according to TABLE 2:
(§4) The volume used was the maximum allowed by the disc without spreading on the medium. The solvent was confirmed to not be inhibitory against the bacteria at the amount used. Microorganism were allowed to grow according to the conditions of TABLE 1, and halos of inhibition (in millimeters) measured after 24 h or 48 h according to the corresponding optimal growth conditions for the microorganisms. Results were obtained in triplicate.

P. acidilactici CECT8633 = format: cell-based, Pediococcus acidilactici
Method: as §1, §2, §3, §4

[1] = system: Pediococcus strains (P. acidilactici CECT8633, P. acidilactici AB134, P. pentosaceus CECT8330); format: cell-based, Pediococcus sp.; settings: for resistance compared with the other strains tested (disc diffusion): vs L. brevis, Streptococcus sp. and P. gingivalis
Method: as §1, §2, §3, §4

[2] = system: Pediococcus pentosaceous CECT8330; format: cell-based, Pediococcus pentosaceus; settings: 6 mm discs impregnated with chlorhexidine; concentration not given
Method: as §1, §2, §3
as §4, with “The solvent was confirmed to not be inhibitory against the bacteria at the amount used.” left out, “Results were obtained in triplicate.” left out

[3] = system: Porphyromonas gingivalis DSM20709; format: cell-based
Method: as §1, §2, §3, §4

[4] = system: Streptococcus sp. strains (S. oralis, S. salivarius K12); format: cell-based
Method: as §1, §2, §3, §4

L. brevis CD2 = format: cell-based, Lactobacillus brevis
Method: as §1, §2, §3, §4

[5] = 6 mm discs impregnated with chlorhexidine, concentration not given
[6] = highest concentration tested 0.12%, v/v
[7] = any of the concentration tested (0.12%, 0.06%, 0.03%)
[8] = triclosan at different concentrations (0.2%, 0.1%, 0.05%), 5 uL per disc
[9] = highest concentration tested 1.2 mg/mL, 5 uL per disc

NC(=NCCCCCCN=C(N)/N=C(\N)Nc1ccc(Cl)cc1)/N=C(\N)Nc1ccc(Cl)cc1 [chlorhexidine, (1E)-2-[6-[[amino-[(E)-[amino-(4-chloroanilino)methylidene]-amino]methylidene]amino]hexyl]-1-[amino-(4-chloroanilino)methylidene]guanidine]
inhibition halo (P. acidilactici AB134): 2 mm
inhibition halo (P. acidilactici CECT8633; [5]): 3 mm
inhibition (halo, disc diffusion) [1, 6]: all the strains were inhibited
resistance compared with the other strains tested (disc diffusion) [1]: greatest resistance
inhibition halo [2]: 4 mm
inhibition halo [3, 5]: 9 mm
inhibition (halo, disc diffusion) [3, 7]: inhibited at any of the concentration tested
inhibition (halo, disc diffusion) [3, 6]: all the strains were inhibited
inhibition (halo, disc diffusion) [4, 7]: inhibited at any of the concentration tested
inhibition (halo, disc diffusion) [4, 6]: all the strains were inhibited
inhibition (halo, disc diffusion) (L. brevis CD2; concentrations of 0.12% and 0.06%): inhibited
inhibition (halo, disc diffusion) (L. brevis CD2; [6]): all the strains were inhibited

Oc1cc(Cl)ccc1Oc1ccc(Cl)cc1Cl [triclosan, 5-Chloro-2-(2,4-dichlorophenoxy)phenol]
inhibition (halo, disc diffusion) [1, 8]: neither Lactobacillus brevis nor the strains belonging to Pediococcus genus were inhibited
inhibition (halo, disc diffusion) [3, 8]: inhibited
inhibition (halo, disc diffusion) [4, 8]: inhibited
inhibition (halo, disc diffusion) (L. brevis CD2; [8]): neither Lactobacillus brevis nor the strains belonging to Pediococcus genus were inhibited

Cc1ccc(C(C)C)c(O)c1 [thymol, 2-isopropyl-5-methylphenol]
growth inhibition (halo, disc diffusion) [3, 9]: inhibited the growth
growth inhibition (halo, disc diffusion) [4, 9]: inhibited the growth

N=C(NCCCCCCNC(=N)NC(=N)Nc1ccc(Cl)cc1)NC(=N)Nc1ccc(Cl)cc1.O=C(O)[C@H](O)[C@@H](O)[C@H](O)[C@H](O)CO.O=C(O)[C@H](O)[C@@H](O)[C@H](O)[C@H](O)CO [chlorhexidine gluconate]
inhibition halo compared with S. salivarius K12 and P. gingivalis (P. acidilactici CECT8633; chlorhexidine gluconate 0.12%, 20 μl per 6-mm disc (FIG. 7)): lower inhibition halo
inhibition (halo, disc diffusion) [1, 6]: all the strains were inhibited
resistance compared with the other strains tested (disc diffusion) [1]: highest resistance
inhibition (halo, disc diffusion) [3, 6]: all the strains were inhibited
inhibition (halo, disc diffusion) [4, 6]: all the strains were inhibited
inhibition (halo, disc diffusion) (L. brevis CD2; [6]): all the strains were inhibited
